Measurements reported in the supplement of paper PMC10307832.

Experiments:
Experiment in all cases: relative viability (nuclei count vs DMSO), 5 days (fraction); higher = more cells survive
Idelalisib + Trametinib = compound: CC[C@H](Nc1ncnc2[nH]cnc12)c1nc2cccc(F)c2c(=O)n1-c1ccccc1 [Idelalisib] + CC(=O)Nc1cccc(-n2c(=O)n(C3CC3)c(=O)c3c(Nc4ccc(I)cc4F)n(C)c(=O)c(C)c32)c1 [Trametinib] (partner 0.02 µM)
Outline: (§1)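 The day after seeding in 1536-well plates, lung cancer cell lines were treated by pin tool with a single drug, or with a fixed anchor-drug dose together with five library-drug doses (not always all listed) in √10 steps. After 5 days, a combined fix-and-stain solution (final 0.05% Triton X-100, 1% formaldehyde, 1 ug/ml Hoechst) was added. Nuclei counted on 4× images gave relative viability as treated counts over vehicle counts, reported as the median of duplicate plates.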

Idelalisib + Alpelisib = compound: CC[C@H](Nc1ncnc2[nH]cnc12)c1nc2cccc(F)c2c(=O)n1-c1ccccc1 [Idelalisib] + Cc1nc(NC(=O)N2CCC[C@H]2C(N)=O)sc1-c1ccnc(C(C)(C)C(F)(F)F)c1 [Alpelisib] (partner 2 µM)
Outline: as §1

Idelalisib + Pemetrexed = compound: CC[C@H](Nc1ncnc2[nH]cnc12)c1nc2cccc(F)c2c(=O)n1-c1ccccc1 [Idelalisib] + Nc1nc2[nH]cc(CCc3ccc(C(=O)N[C@@H](CCC(=O)O)C(=O)O)cc3)c2c(=O)[nH]1 [Pemetrexed] (partner 0.2 µM)
Outline: as §1

Idelalisib + Decitabine = compound: CC[C@H](Nc1ncnc2[nH]cnc12)c1nc2cccc(F)c2c(=O)n1-c1ccccc1 [Idelalisib] + Nc1ncn([C@H]2C[C@H](O)[C@@H](CO)O2)c(=O)n1 [Decitabine] (partner 2 µM)
Outline: as §1

Cell Line | relative viability (Idelalisib + Trametinib; first compound 0.04 µM) | relative viability (Idelalisib + Trametinib; first compound 0.1265 µM) | relative viability (Idelalisib + Trametinib; first compound 0.4 µM) | relative viability (Idelalisib + Trametinib; first compound 1.265 µM) | relative viability (Idelalisib + Trametinib; first compound 4 µM) | relative viability (Idelalisib + Alpelisib; first compound 0.04 µM) | relative viability (Idelalisib + Alpelisib; first compound 0.1265 µM) | relative viability (Idelalisib + Alpelisib; first compound 0.4 µM) | relative viability (Idelalisib + Alpelisib; first compound 1.265 µM) | relative viability (Idelalisib + Alpelisib; first compound 4 µM) | relative viability (Idelalisib + Pemetrexed; first compound 0.04 µM) | relative viability (Idelalisib + Pemetrexed; first compound 0.1265 µM) | relative viability (Idelalisib + Pemetrexed; first compound 0.4 µM) | relative viability (Idelalisib + Pemetrexed; first compound 1.265 µM) | relative viability (Idelalisib + Pemetrexed; first compound 4 µM) | relative viability (Idelalisib + Decitabine; first compound 0.04 µM) | relative viability (Idelalisib + Decitabine; first compound 0.1265 µM) | relative viability (Idelalisib + Decitabine; first compound 0.4 µM) | relative viability (Idelalisib + Decitabine; first compound 1.265 µM) | relative viability (Idelalisib + Decitabine; first compound 4 µM)
NCI-H2085 | 0.569 | 0.299 | 0.382 | 0.369 | 0.327 | 1.01 | 0.955 | 0.811 | 0.874 | 0.514 | 0.909 | 0.852 | 0.789 | 0.746 | 0.528 | 0.528 | 0.57 | 0.622 | 0.596 | 0.61
NCI-H2087 | 0.206 | 0.23 | 0.204 | 0.205 | 0.156 | 1.03 | 1.19 | 1.11 | 1.09 | 0.651 | 0.742 | 0.671 | 0.657 | 0.637 | 0.695 | 0.357 | 0.337 | 0.217 | 0.244 | 0.269
NCI-H2126 | 0.602 | 0.602 | 0.542 | 0.575 | 0.485 | 0.739 | 0.739 | 0.611 | 0.675 | 0.6 | 0.848 | 0.739 | 0.523 | 0.769 | 0.619 | 0.545 | 0.56 | 0.532 | 0.548 | 0.524
NCI-H2170 | 1.05 | 0.941 | 0.851 | 0.893 | 0.805 | 0.795 | 0.854 | 0.708 | 0.688 | 0.547 | 0.292 | 0.254 | 0.268 | 0.262 | 0.29 | 0.507 | 0.471 | 0.505 | 0.438 | 0.417
NCI-H2347 | 0.267 | 0.282 | 0.246 | 0.278 | 0.229 | 0.964 | 1 | 0.989 | 1.07 | 0.881 | 0.436 | 0.423 | 0.436 | 0.452 | 0.402 | 0.612 | 0.589 | 0.752 | 0.621 | 0.512
NCI-H2405 | 0.672 | 0.656 | 0.423 | 0.622 | 0.515 | 0.811 | 0.642 | 0.537 | 0.683 | 0.544 | 1.13 | 1.06 | 0.986 | 0.974 | 1.09 | 0.751 | 0.752 | 0.644 | 0.838 | 0.691
NCI-H3122 | 0.224 | 0.223 | 0.188 | 0.235 | 0.225 | 0.709 | 0.782 | 0.685 | 0.777 | 0.631 | 0.21 | 0.207 | 0.196 | 0.188 | 0.198 | 0.461 | 0.418 | 0.358 | 0.444 | 0.369
PC-3 [JPC-3] | 0.721 | 0.69 | 0.724 | 0.607 | 0.496 | 1.11 | 1.02 | 0.981 | 0.963 | 0.855 | 1.4 | 1.16 | 1.11 | 1.09 | 1.08 | 0.917 | 0.89 | 0.763 | 0.819 | 0.772
PC-14 | 0.648 | 0.757 | 0.695 | 0.723 | 0.509 | 0.992 | 0.882 | 0.874 | 0.983 | 0.9 | 0.15 | 0.126 | 0.148 | 0.142 | 0.135 | 0.295 | 0.194 | 0.215 | 0.166 | 0.209
RERF-LC-KJ | 0.84 | 0.912 | 0.804 | 0.936 | 0.66 | 0.735 | 0.71 | 0.785 | 0.77 | 0.645 | 0.46 | 0.44 | 0.46 | 0.491 | 0.448 | 0.757 | 0.739 | 0.692 | 0.573 | 0.521
SK-LU-1 | 0.422 | 0.467 | 0.394 | 0.492 | 0.414 | 1.43 | 1.12 | 0.886 | 0.876 | 0.968 | 0.86 | 1.06 | 0.943 | 0.919 | 0.967 | 0.645 | 0.605 | 0.581 | 0.706 | 0.618
SK-MES-1 | 0.497 | 0.482 | 0.426 | 0.477 | 0.353 | 0.837 | 0.913 | 0.753 | 0.715 | 0.574 | 0.993 | 0.997 | 0.878 | 0.433 | 0.909 | 0.399 | 0.414 | 0.36 | 0.248 | 0.257
SW 1573 | 0.688 | 0.468 | 0.477 | 0.506 | 0.383 | 0.822 | 0.612 | 0.711 | 0.729 | 0.633 | 0.825 | 0.848 | 0.802 | 0.702 | 0.739 | 0.462 | 0.6 | 0.537 | 0.261 | 0.38
